From patent US20060018827A1, “Positron therapy of inflammation, infection and disease” (priority 2004, published 2006)
Read-outs that look alike come from different tables or passages of the source.

Experiments:
[1] = system: xenografted Notch tumor; test: Treatment of Notch tumor-bearing mice with ^18F-FDG; assay type: in vivo, mouse; settings: Notch tumor-bearing nude mice, 2.5 mCi i.p.
Protocol: Notch cell line. Mouse mammary gland cell line 5505 was derived from mammary tumors arising in transgenic mice which express an activated form of Notch 4 from the mouse mammary tumor virus long terminal repeat (MMTV-LTR) promoter/enhancer (Fitzgerald et al. 2000). This cell line is further referred to herein as Notch cells. The Notch cells were cultured in DMEM supplemented with 10% FCS, 10% NCTC-109, 1% non-essential amino acids, […] D-glucose and 1% penicillin-streptomycin.
Animals. All procedures involving mice were conducted in accordance with the National Institutes of Health regulations concerning the use and care of experimental animals. The study of mice was approved by the Albert Einstein College of Medicine (AECOM) Animal Use Committee. Transgenic mice expressing the polyoma middle T antigen (PyMT) in the mammary epithelium under the control of mouse mammary tumor virus (MMTV) long terminal repeat were provided by Dr. W. J. Muller (McMaster University, Ontario, Canada) and then bred at AECOM. At the age of 10 weeks these mice have multiple mammary tumors 0.15-0.17 cm in diameter. In mice older than 18 weeks the tumors are more than 1 cm in diameter. MMTV-NeuT mice (Muller et al. 1988), which carry erbB-2 (Neu), one of the better known human breast cancer oncogenes, were purchased from Jackson Laboratories. MMTV-NeuT mice were obtained as retired breeders and some of them developed mammary tumors at the age of 5 months, whereas others remained-tumor free until 6-7 months of age. C3H/B6 female mice lacking the PyMT transgene were used as healthy controls in therapy experiments. […]
Treatment of Notch tumor-bearing mice with ^18F-FDG. […] Animals were monitored for their vital signs and survival for 1 month. Their tumors were measured every 3 days with calipers in three perpendicular planes and the product of the three measurements was multiplied by 0.5 and expressed in cm^3. The growth rate for tumors in cm^3/day was calculated using the formula: […]/number of days survived. […]

[2] = system: metastatic breast cancer; test: ^18F-FDG-PET in breast cancer patients with metastatic disease; assay type: in vivo, human
Protocol: (§1) ^18F-FDG-PET in breast cancer patients with metastatic disease. Approval was obtained from the Albert Einstein College of Medicine Cancer Center Protocol Review Committee and the Montefiore Medical Center Institutional Review Board. Retrospectively, five consecutive patients with breast cancer and metastatic disease shown on ^18F-FDG-PET scanning were evaluated. After more than 4 hours of fasting, the patients were administered 3.5 mCi of ^18F-FDG, and rested during an uptake period of 45 minutes. The patients then underwent a whole-body scan on the CPET scanner. The scanning protocol consisted of 6 minutes of emission and two rotations of a ^137Cs source for transmission per bed position, and approximately six bed positions. Images were corrected for attenuation and reconstructed with the iterative method. To reduce volume averaging, a small round region of interest 12 pixels in size was drawn in the center of the tumor and in the center of normal liver. The diameter of the region was 14 mm. Standardized uptake values (SUVs) were calculated for all regions of interest by the formula SUV=(activity in tissue [mCi/g]) divided by (injected activity [mCi]/body weight [g]). The tumor to liver ratios (TLRS) were calculated by the formula TLR=SUV of tumor divided by SUV of liver.

[3] = system: metastatic cancers; test: FDG-PET SUVmax in patients with different types of metastatic cancer; assay type: in vivo, human
Protocol: as §1
Human Tumor Dosimetry. For each patient, the tumor with the highest SUVmax was used, and corresponding calculated tumor dose (TD) for metastatic cancers are shown in Columns 4 and 5 in Table 3. Tumor dose is calculated by the formulae: D(cGy)=100*SUV, for a dose of 5 Ci HD ^18F-FDG; and D(cGy)=150*SUV, for a dose of 7.5 Ci HD ^18F-FDG.

[4] = 70 Kg person, cited from earlier work
[5] = Patient 1, metastasis to sub-carinal lymph node, 3.5 mCi
[6] = Patient 2, metastasis to the left axilla, 3.5 mCi
[7] = Patient 4, metastasis to the right axilla, 3.5 mCi

## O=C[C@H]([18F])[C@@H](O)[C@H](O)[C@H](O)CO [^18F-FDG, ^18F-2-deoxy-2-fluoro-D-glucose]
[1]
  mean (95% CI) time to death: 18 (13-23) days
[1]; longest survival
  survival period: up to 30 days
[1]; therapy group
  median tumor growth rate: 0.020 cm^3/day
[2]; [5]
  SUV Metastasis: 5.3
  TLR: 1.89
[2]; Patient 1, 3.5 mCi
  SUV Normal liver: 2.8
[2]; [6]
  SUV Metastasis: 7.4
  TLR: 3.36
[2]; Patient 2, 3.5 mCi
  SUV Normal liver: 2.3
[2]; Patient 3, liver metastasis (10 cm×6 cm×4.5 cm), 3.5 mCi
  SUV Metastasis: 5.8
[2]; Patient 3, liver metastasis, 3.5 mCi
  TLR: 2.23
[2]; Patient 3, tumor with a diameter of 2 cm
  lowest SUV: 3.8
[2]; Patient 3, 3.5 mCi
  SUV Normal liver: 2.6
[2]; [7]
  SUV Metastasis: 5.3
  TLR: 2.52
[2]; Patient 4, 3.5 mCi
  SUV Normal liver: 2.1
[2]; Patient 5, right lung metastasis (most intense, diameter 5 cm), 3.5 mCi
  SUV Metastasis: 9.9
[2]; Patient 5, right lung metastasis, 3.5 mCi
  TLR: 3.67
[2]; Patient 5, tumor with a diameter of 1.5 cm
  least intense SUV: 2.9
[2]; Patient 5, 3.5 mCi
  SUV Normal liver: 2.7
[2]; five patients with metastatic breast cancer, 3.5 mCi
  average TLR: 2.7±0.8
[3]; metastatic Anaplastic Thyroid cancer, 3 patients
  SUVmax Median: 17.4
[3]; metastatic Breast cancer, 10 patients
  SUVmax Median: 7.2
[3]; metastatic Cervical cancer, 4 patients
  SUVmax Median: 7.0
[3]; metastatic Esophageal cancer, 5 patients
  SUVmax Median: 11.1
[3]; metastatic Head & Neck cancer, 9 patients
  SUVmax Median: 6.6
[3]; metastatic Lung cancer, 10 patients
  SUVmax Median: 5.9
[3]; metastatic Lymphoma, 9 patients
  SUVmax Median: 5.6
[3]; metastatic Melanoma, 7 patients
  SUVmax Median: 9.0
[3]; metastatic Ovarian cancer, 9 patients
  SUVmax Median: 5.3
[3]; patient with metastatic esophageal cancer, abdominal metastasis
  maximum SUV: 33
[3]; patient with metastatic non-small cell lung cancer, right mediastinum
  maximum SUV: 14.8
[4]; Bone marrow
  Radiation dose to organ from 1 mCi ^18F-FDG: 0.04 cGy/mCi
[4]; Brain
  Radiation dose to organ from 1 mCi ^18F-FDG: 0.17 cGy/mCi
[4]; Heart wall
  Radiation dose to organ from 1 mCi ^18F-FDG: 0.25 cGy/mCi
[4]; Kidneys
  Radiation dose to organ from 1 mCi ^18F-FDG: 0.078 cGy/mCi
[4]; Liver
  Radiation dose to organ from 1 mCi ^18F-FDG: 0.088 cGy/mCi
[4]; Lungs
  Radiation dose to organ from 1 mCi ^18F-FDG: 0.056 cGy/mCi
[4]; Ovaries
  Radiation dose to organ from 1 mCi ^18F-FDG: 0.041 cGy/mCi
[4]; Testes
  Radiation dose to organ from 1 mCi ^18F-FDG: 0.041 cGy/mCi
[4]; Urinary bladder
  Radiation dose to organ from 1 mCi ^18F-FDG: 0.27 cGy/mCi
